{
  "source": "patent US20250368611A1",
  "about": "“METHOD FOR PREPARING BERAPROST 314-D SODIUM” (YS Life Science Co., Ltd., priority 2024, published 2025)",
  "key": {"[1]": {"test_system": "Raji-luc tumor cells", "test": "CAR T-cell efficacy in NSG mice bearing Raji-luc tumors (IVIS imaging)", "type": "in vivo", "settings": "0.3, 0.2 or 0.15 mg/kg/d BID for 14 days; Day 15", "method": "The effects if any, of CTO1681 on CAR T-cell activity in vivo were measured. Human T-cells expressing CD19-CD28-CD3Z CAR construct was used in this experiment. 6-7 week old NSG™ (NOD SCID gamma) mice were engrafted with 1×10^6 luciferase (luc) expressing Raji tumor cells (herein referred to as “Raji-luc” tumor cells) each on Day 1 to allow for tumor growth over a 7-day period prior to the commencement of the treatment. CAR T-cell infusion was performed intravenously via lateral tail vein on (5×10^6 CD19 CAR T-cells generated from healthy donors). NSG mice are severely immunodeficient, which facilitates ready tumor engraftment and subsequent clearance due to CAR T-cells can be measured. Tumor growth after engraftment and subsequent clearance were monitored once weekly (starting on Day 7) using IVIS imaging to detect luciferase signal in living mice. CTO1681 administration began on Day 8, two days before CAR T-cell infusion, with injections twice a day for 14 days. Mice received total daily CTO1681 doses of 0.3 mg/kg/d, 0.2 mg/kg/d, or 0.15 mg/kg/d via two injections (BID). CTO1681 doses were selected based on the pharmacokinetic profile of the drug in mice. […] Mice were monitored for body temperature and health evaluations (weight, movement, posture, fur condition, etc.) throughout the entire study."}, "[2]": {"test_system": "CD19+ Raji lymphoma target cells", "test": "CD19 CAR T-cell killing of Raji target cells, flow cytometry (7-AAD)", "type": "cell-based, human", "settings": "all concentrations 0.36-225 nM; 24 hours co-culture", "text": "The impact of CTO1681 on the efficacy of CD19-targeting CAR T-cells in vitro as well as its ability to reduce CRS-inducing pro-inflammatory cytokine levels in the presence of CAR T-cells and tumor cells in vitro were explored. […] CD3 T cells were sorted from one healthy donor PBMCs, stimulated for a short period of time and transduced with CD19 CAR-T lentivirus (LV) containing CD28 and CD3ζ domains. CD19 CAR T-cells were expanded for 6 days and used in the assay. CD19-targeting CD3 T-cells were treated with 5 increasing concentrations of CTO1681 (0.36 nM, 1.8 nM, 9 nM, 45 nM, and 225 nM) or vehicle for 30 minutes, prior to, and during co-culture with CD19+ Raji lymphoma target cells. Media alone, vehicle, and positive control (dexamethasone) wells were included. […] Following incubation, supernatant was collected and levels of pro-inflammatory cytokines IL-6 and TNF-α were measured by multiplex Luminex assay and […] was measured via time-resolved fluorescence resonance energy transfer (TR-FRET) assay. These cytokines were selected for quantification as they are early cytokines released following CAR T-cell infusion in vivo that causes hyperactivation of the immune system resulting in acute systemic inflammation, CRS, multiorgan failure, and possible death. […]"}, "[3]": {"test_system": "IFN-γ", "test": "CD19 CAR T-cell / Raji co-culture: IFN-γ in supernatant by TR-FRET", "type": "cell-based, human", "text": "(§1) The impact of CTO1681 on the efficacy of CD19-targeting CAR T-cells in vitro as well as its ability to reduce CRS-inducing pro-inflammatory cytokine levels in the presence of CAR T-cells and tumor cells in vitro were explored. […] CD3 T cells were sorted from one healthy donor PBMCs, stimulated for a short period of time and transduced with CD19 CAR-T lentivirus (LV) containing CD28 and CD3ζ domains. CD19 CAR T-cells were expanded for 6 days and used in the assay. CD19-targeting CD3 T-cells were treated with 5 increasing concentrations of CTO1681 (0.36 nM, 1.8 nM, 9 nM, 45 nM, and 225 nM) or vehicle for 30 minutes, prior to, and during co-culture with CD19+ Raji lymphoma target cells. Media alone, vehicle, and positive control (dexamethasone) wells were included. Following initial treatment, CAR T-cells (Effectors) were co-cultured with fluorescently labeled CD19+ Raji tumor cells (Target cells) at 3 different Effector:Target cell ratios (10:1, 5:1 and 1:1) and treated with 5 different concentrations of CTO1681 or vehicle for 24 hours. Target cells (Raji cells) were fluorescently labelled with CPD (eBioscience™ Cell Proliferation Dye eFluor™) prior to co-culture to distinguish the Raji cells from the effector cells and allow for analysis of target viability by flow cytometry. Following incubation, supernatant was collected and levels of pro-inflammatory cytokines IL-6 and TNF-α were measured by multiplex Luminex assay and […] was measured via time-resolved fluorescence resonance energy transfer (TR-FRET) assay. These cytokines were selected for quantification as they are early cytokines released following CAR T-cell infusion in vivo that causes hyperactivation of the immune system resulting in acute systemic inflammation, CRS, multiorgan failure, and possible death. In addition, flow cytometry was used to measure the level of Raji tumor/target cell death following CAR T treatment across CTO1681 conditions to measure impact of CTO1681 with CAR T-cell efficacy. Co-cultures were stained with viability dye 7-AAD for measuring viability."}, "[4]": {"test_system": "IL-6", "test": "CD19 CAR T-cell / Raji co-culture: IL-6 in supernatant by multiplex Luminex", "type": "cell-based, human", "text": "as §1"}, "[5]": {"test_system": "TNF-α", "test": "CD19 CAR T-cell / Raji co-culture: TNF-α in supernatant by multiplex Luminex", "type": "cell-based, human", "text": "as §1"}, "[6]": {"test": "Health evaluations in NSG tumor-bearing mice", "type": "in vivo", "settings": "0.3, 0.2 or 0.15 mg/kg/d BID for 14 days with CAR T-cells", "method": "Tumor growth after engraftment and subsequent clearance were monitored once weekly (starting on Day 7) using IVIS imaging to detect luciferase signal in living mice. CTO1681 administration began on Day 8, two days before CAR T-cell infusion, with injections twice a day for 14 days. Mice received total daily CTO1681 doses of 0.3 mg/kg/d, 0.2 mg/kg/d, or 0.15 mg/kg/d via two injections (BID). CTO1681 doses were selected based on the pharmacokinetic profile of the drug in mice. Control groups included mice receiving Raji-luc tumor cells without CAR T-cell treatment, mice receiving Raji-luc tumor cells and a CAR T-cell infusion, and mice receiving Raji-luc tumor cells with vehicle treatments. Mice were monitored for body temperature and health evaluations (weight, movement, posture, fur condition, etc.) throughout the entire study."}, "[7]": {"settings": "10:1 ratio of Effectors to Target cells, 0.36-225 nM, 24 hours"}, "[8]": {"settings": "CAR T-cells:Raji cells 10:1, 0.36-225 nM"}, "[9]": {"settings": "across three ratios of CAR-T cells to Raji cells (10:1, 5:1, 1:1)"}},
  "note": "“Also recorded” adds a separate entry of the source.",
  "data": [
    {"molecule": "CC#CC[C@H](C)[C@H](O)/C=C/[C@@H]1[C@H]2c3cccc(CCCC(=O)[O-])c3O[C@H]2C[C@H]1O.[Na+]", "note": "[CTO1681, sodium 4-((1R,2R,3aS,8bS)-2-hydroxy-1-((3S,4S,E)-3-hydroxy-4-methyloct-1-en-6-yn-1-yl)-2,3,3a,8b-tetrahydro-1H-cyclopenta[b]benzofuran-5-yl)butanoate]", "values": [
      {"measurement": "Effect on CD19 CAR T-cell activity (reduction of tumor burden, luciferase signal)", "setting": "[1]", "value": "did not affect; also recorded: does not interfere"},
      {"measurement": "Effect on tumor/target cell killing by CD19-directed CAR T-cells", "setting": "[2]", "value": "did not impact or interfere; also recorded: absence of an effect"},
      {"measurement": "IFN-γ", "setting": "[3]; [7]", "value": "~26", "unit": "%"},
      {"measurement": "Effect on IFN-γ levels", "setting": "[3]; [8]", "value": "dose-dependently reduced; also recorded: dose-dependently lowers"},
      {"measurement": "IFN-γ", "setting": "[3]; [9]", "value": "reduction"},
      {"measurement": "Maximum reduction IL-6", "setting": "[4]; [7]", "value": "~23", "unit": "%"},
      {"measurement": "Effect on IL-6 levels", "setting": "[4]; [8]", "value": "dose-dependently reduced; also recorded: dose-dependently lowers"},
      {"measurement": "IL-6 with increasing concentrations", "setting": "[4]; [9]", "value": "reduction"},
      {"measurement": "Maximum reduction TNF-α", "setting": "[5]; [7]", "value": "approximately 50%"},
      {"measurement": "Effect on TNF-α levels", "setting": "[5]; [8]", "value": "dose-dependently reduced; also recorded: dose-dependently lowers"},
      {"measurement": "TNF-α with increasing concentrations", "setting": "[5]; [9]", "value": "reduction"},
      {"measurement": "Clinical morbidities, including weight loss or limb movement", "setting": "[6]", "value": "did not cause any increase"}
    ]}
  ]
}
